# Earlier results, collected in patent US20070027073A1, “Long-acting derivatives of pyy agonists” (priority 2003, published 2007).
# Settings: in vivo
compound,measurement,value
CCCCCCCCCCC[C@@H](C[C@@H]1OC(=O)[C@H]1CCCCCC)OC(=O)[C@H](CC(C)C)NC=O [Orlistat],reduction of fat adsorption through the gut,about one third
